# Laboratory results taken from patent US20260262643A1, “HERBICIDAL BENZOXAZINES” (FMC CORPORATION, priority 2022, published 2026).
# What was measured:
# [1] = tested on: oat, wild; assay: Test C postemergence; assay type: in vivo, Avena fatua; conditions: 10 days, 0 to 100 scale (0 no effect, 100 complete control)
# How it was run: (§1)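 Visual injury score, 0–100 (100 = complete control), taken 10 days after treatment relative to untreated controls. Pre: directed spray onto soil over sown seeds. Post: foliar spray at one- to two-leaf stage, 2–10 cm. Solvent/surfactant formulation; loam–sand soil; greenhouse.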
# [2] = tested on: galium; assay: Test C postemergence; assay type: in vivo, Galium aparine; conditions: 10 days, 0 to 100 scale (0 no effect, 100 complete control)
# How it was run: as §1
# [3] = tested on: horseweed; assay: Test C postemergence; assay type: in vivo, Erigeron canadensis; conditions: 10 days, 0 to 100 scale (0 no effect, 100 complete control)
# How it was run: as §1
# [4] = tested on: pigweed, palmer; assay: Test C preemergence; assay type: in vivo, Amaranthus palmeri; conditions: preemergence, 0 to 100 scale (0 no effect, 100 complete control)
# How it was run: as §1
# [5] = tested on: barnyardgrass; assay: Test C postemergence; assay type: in vivo, Echinochloa crusgalli; conditions: 10 days, 0 to 100 scale (0 no effect, 100 complete control)
# How it was run: as §1
# [6] = tested on: pigweed, palmer; assay: Test C postemergence; assay type: in vivo, Amaranthus palmeri; conditions: 10 days, 0 to 100 scale (0 no effect, 100 complete control)
# How it was run: as §1
# [7] = tested on: ryegrass, Italian; assay: Test C preemergence; assay type: in vivo, Lolium multiflorum; conditions: preemergence, 0 to 100 scale (0 no effect, 100 complete control)
# How it was run: as §1
# [8] = tested on: soybean; assay: Test C postemergence; assay type: in vivo, Glycine max; conditions: 10 days, 0 to 100 scale (0 no effect, 100 complete control)
# How it was run: as §1
# [9] = tested on: corn; assay: Test C postemergence; assay type: in vivo, Zea mays; conditions: 10 days, 0 to 100 scale (0 no effect, 100 complete control)
# How it was run: as §1
# [10] = tested on: kochia; assay: Test C postemergence; assay type: in vivo, Bassia scoparia; conditions: 10 days, 0 to 100 scale (0 no effect, 100 complete control)
# How it was run: as §1
# [11] = tested on: blackgrass; assay: Test C postemergence; assay type: in vivo, Alopecurus myosuroides; conditions: 10 days, 0 to 100 scale (0 no effect, 100 complete control)
# How it was run: as §1
# [12] = tested on: kochia; assay: Test C preemergence; assay type: in vivo, Bassia scoparia; conditions: preemergence, 0 to 100 scale (0 no effect, 100 complete control)
# How it was run: as §1
# [13] = tested on: wheat; assay: Test C preemergence; assay type: in vivo, Triticum aestivum; conditions: preemergence, 0 to 100 scale (0 no effect, 100 complete control)
# How it was run: as §1
# [14] = tested on: ragweed; assay: Test C preemergence; assay type: in vivo, Ambrosia artemisiifolia; conditions: preemergence, 0 to 100 scale (0 no effect, 100 complete control)
# How it was run: as §1
# [15] = tested on: corn; assay: Test C preemergence; assay type: in vivo, Zea mays; conditions: preemergence, 0 to 100 scale (0 no effect, 100 complete control)
# How it was run: as §1
# [16] = tested on: barnyardgrass; assay: Test D flooded paddy test; assay type: in vivo, Echinochloa crus-galli; conditions: 250 g ai/ha, applied to paddy water, visual rating after 13 to 14 days, scale 0 to 100 (0 no effect, 100 complete control)
# How it was run: (§2)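 Visual ratings from 0, meaning no effect, to 100, meaning complete control, were assigned against untreated controls 13 to 14 days after compounds were added to the floodwater of pots kept 3 cm deep, with plants at the 2-leaf stage.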
# [17] = tested on: blackgrass; assay: Test C preemergence; assay type: in vivo, Alopecurus myosuroides; conditions: preemergence, 0 to 100 scale (0 no effect, 100 complete control)
# How it was run: as §1
# [18] = tested on: green foxtail; assay: Test C preemergence; assay type: in vivo, Setaria viridis; conditions: preemergence, 0 to 100 scale (0 no effect, 100 complete control)
# How it was run: as §1
# [19] = tested on: ducksalad; assay: Test D flooded paddy test; assay type: in vivo, Heteranthera limosa; conditions: 250 g ai/ha, applied to paddy water, visual rating after 13 to 14 days, scale 0 to 100 (0 no effect, 100 complete control)
# How it was run: as §2
# [20] = tested on: green foxtail; assay: Test C postemergence; assay type: in vivo, Setaria viridis; conditions: 10 days, 0 to 100 scale (0 no effect, 100 complete control)
# How it was run: as §1
# [21] = tested on: barnyardgrass; assay: Test C preemergence; assay type: in vivo, Echinochloa crusgalli; conditions: preemergence, 0 to 100 scale (0 no effect, 100 complete control)
# How it was run: as §1
# [22] = tested on: ragweed; assay: Test C postemergence; assay type: in vivo, Ambrosia artemisiifolia; conditions: 10 days, 0 to 100 scale (0 no effect, 100 complete control)
# How it was run: as §1
# [23] = tested on: oat, wild; assay: Test C preemergence; assay type: in vivo, Avena fatua; conditions: preemergence, 0 to 100 scale (0 no effect, 100 complete control)
# How it was run: as §1
# [24] = tested on: soybean; assay: Test C preemergence; assay type: in vivo, Glycine max; conditions: preemergence, 0 to 100 scale (0 no effect, 100 complete control)
# How it was run: as §1
# [25] = tested on: wheat; assay: Test C postemergence; assay type: in vivo, Triticum aestivum; conditions: 10 days, 0 to 100 scale (0 no effect, 100 complete control)
# How it was run: as §1
# [26] = tested on: ryegrass, Italian; assay: Test C postemergence; assay type: in vivo, Lolium multiflorum; conditions: 10 days, 0 to 100 scale (0 no effect, 100 complete control)
# How it was run: as §1
# [27] = tested on: rice; assay: Test D flooded paddy test; assay type: in vivo, Oryza sativa; conditions: 250 g ai/ha, applied to paddy water, visual rating after 13 to 14 days, scale 0 to 100 (0 no effect, 100 complete control)
# How it was run: as §2
# [28] = tested on: sedge, umbrella; assay: Test D flooded paddy test; assay type: in vivo, Cyperus difformis; conditions: 250 g ai/ha, applied to paddy water, visual rating after 13 to 14 days, scale 0 to 100 (0 no effect, 100 complete control)
# How it was run: as §2
compound,measurement,setting,value
COC[C@H]1CN(C(=O)c2cc(-n3cnc(C(C)C)n3)ccc2C)c2cccc(Cl)c2O1 [Compound 313],"Plant response rating, Oat, Wild","[1]; 500 g ai/ha, postemergence",60
same,"Plant response rating, Oat, Wild","[1]; Postemergence, 125 g ai/ha",20
same,"Plant response rating, Galium","[2]; 500 g ai/ha, postemergence",100
same,"Plant response rating, Galium","[2]; Postemergence, 125 g ai/ha",100
same,"Plant response rating, Horseweed","[3]; 500 g ai/ha, postemergence",90
same,"Plant response rating, Horseweed","[3]; Postemergence, 125 g ai/ha",90
same,"Pigweed, Palmer plant response rating",[4]; 500 g ai/ha,100
same,"Pigweed, Palmer plant response rating","[4]; Test C, 125 g ai/ha",100
same,"Plant response rating, Barnyardgrass","[5]; 500 g ai/ha, postemergence",70
same,"Plant response rating, Barnyardgrass","[5]; Postemergence, 125 g ai/ha",40
same,"Plant response rating, Pigweed, Palmer","[6]; 500 g ai/ha, postemergence",100
same,"Plant response rating, Pigweed, Palmer","[6]; Postemergence, 125 g ai/ha",80
same,"Ryegrass, Italian plant response rating",[7]; 500 g ai/ha,100
same,"Ryegrass, Italian plant response rating","[7]; Test C, 125 g ai/ha",80
same,"Plant response rating, Soybean","[8]; 500 g ai/ha, postemergence",100
same,"Plant response rating, Soybean","[8]; Postemergence, 125 g ai/ha",100
same,"Plant response rating, Corn","[9]; 500 g ai/ha, postemergence",90
same,"Plant response rating, Corn","[9]; Postemergence, 125 g ai/ha",80
same,"Plant response rating, Kochia","[10]; 500 g ai/ha, postemergence",90
same,"Plant response rating, Kochia","[10]; Postemergence, 125 g ai/ha",90
same,"Plant response rating, Blackgrass","[11]; 500 g ai/ha, postemergence",100
same,"Plant response rating, Blackgrass","[11]; Postemergence, 125 g ai/ha",70
same,Kochia plant response rating,[12]; 500 g ai/ha,100
same,Kochia plant response rating,"[12]; Test C, 125 g ai/ha",80
same,Wheat plant response rating,[13]; 500 g ai/ha,90
same,Wheat plant response rating,"[13]; Test C, 125 g ai/ha",20
same,Ragweed plant response rating,[14]; 500 g ai/ha,70
same,Ragweed plant response rating,"[14]; Test C, 125 g ai/ha",0
same,Corn plant response rating,[15]; 500 g ai/ha,0
same,Corn plant response rating,"[15]; Test C, 125 g ai/ha",0
same,"Plant response rating, Barnyardgrass (Flood)",[16],35
same,Blackgrass plant response rating,[17]; 500 g ai/ha,60
same,Blackgrass plant response rating,"[17]; Test C, 125 g ai/ha",50
same,"Foxtail, Green plant response rating",[18]; 500 g ai/ha,100
same,"Foxtail, Green plant response rating","[18]; Test C, 125 g ai/ha",100
same,"Plant response rating, Ducksalad (Flood)",[19],65
same,"Plant response rating, Foxtail, Green","[20]; 500 g ai/ha, postemergence",90
same,"Plant response rating, Foxtail, Green","[20]; Postemergence, 125 g ai/ha",40
same,Barnyardgrass plant response rating,[21]; 500 g ai/ha,100
same,Barnyardgrass plant response rating,"[21]; Test C, 125 g ai/ha",80
same,"Plant response rating, Ragweed","[22]; 500 g ai/ha, postemergence",90
same,"Plant response rating, Ragweed","[22]; Postemergence, 125 g ai/ha",60
same,"Oat, Wild plant response rating",[23]; 500 g ai/ha,90
same,"Oat, Wild plant response rating","[23]; Test C, 125 g ai/ha",90
same,Soybean plant response rating,[24]; 500 g ai/ha,100
same,Soybean plant response rating,"[24]; Test C, 125 g ai/ha",40
same,"Plant response rating, Wheat","[25]; 500 g ai/ha, postemergence",50
same,"Plant response rating, Wheat","[25]; Postemergence, 125 g ai/ha",30
same,"Plant response rating, Ryegrass, Italian","[26]; 500 g ai/ha, postemergence",90
same,"Plant response rating, Ryegrass, Italian","[26]; Postemergence, 125 g ai/ha",80
same,"Plant response rating, Rice (Flood)",[27],20
same,"Plant response rating, Sedge, Umbrella (Flood)",[28],98
